Some results are limits rather than exact numbers.

Broadly, the melting point is the temperature of the solid-liquid transition.

`Cc1cc(C)cc(-c2cn(C)cc(-c3ccccc3)c2=O)c1` displayed a melting point of 148 to 150 °C. `CSc1ccc2c(C3CCN(C(C)=O)CC3)nn(-c3ccccc3)c2c1` returned a melting point of 120 to 122 °C. The value for `C#CCn1c(C)c(C(=O)OCC)sc1=O` was 65 °C; that for `CC(C)(C)C1=CC(=Cc2ccc([N+](=O)[O-])cc2)C=C(C(C)(C)C)C1=O` was 162 to 163 °C; that for `O=C1C(=O)c2ccccc2C2=C1SCC1(CCN(Cc3ccccc3F)CC1)O2` was 118 to 122 °C. `COC(=O)c1ccccc1Nc1ccccc1`: the melting point is 92.5 to 102 °C. `Cc1c(Cl)nc(NC=O)nc1Cl` displayed a melting point of 123 to 124 °C. `CCCCCCCCCCNc1nc(NCC(O)C2CC(C)(C)NC(C)(C)C2)nc(NCC(O)C2CC(C)(C)NC(C)(C)C2)n1` (centres undefined) yielded a melting point of 106 to 107 °C. On to `COC(=O)[C@@H](NC(=O)OCc1ccccc1)C(C)C`, for which the melting point was 54 to 56 °C. The value for `Oc1ccc2c(c1)C(Cc1c[nH]cn1)CC2` (centres undefined) was 206 to 208 °C; that for `OCc1cc(CO)n(C(c2ccccc2)(c2ccccc2)c2ccccc2)n1` was 180 to 182 °C; that for `CCOC(=O)c1c(C(F)(F)F)nc(C(F)(F)Cl)c(C(=O)OC)c1Nc1ccccc1` was 91 to 92 °C. For `CC(C)(C)C1=CC(=Nc2cccc(C(=O)O)c2)C=C(C(C)(C)C)C1=O`, the melting point was in the range of 230 to 231 °C. In the case of `CCNC(=O)C(C)Oc1ncn(-c2cccc(C(F)(F)F)c2)n1` (centres undefined), the melting point lay in the range of 135 to 137 °C. For `C[C@@](N)(Cc1ccc(OC(F)(F)F)cc1)C(=O)Nc1cc(Cl)cc(Cl)c1`, the melting point is over 200 °C. Regarding `COc1ccccc1C1Cc2c(ccn2C)C2C(=O)NC(=O)C12` (centres undefined), the melting point was 208 to 212 °C. For `Cn1c(=O)[nH]c2nc(C(F)(F)F)n(Cc3ccccc3)c2c1=O`, the melting point was 211 to 213 °C. Compound `CC(=O)OCc1nc([N+](=O)[O-])c(C#N)n1C` returned a melting point of 92 to 93 °C. `ClC=C(c1ccc(Cl)cc1)c1ccc(Cl)cc1` registered a melting point of 65 to 67 °C. As for `C[C@@H]1CCCN1CCCOc1ccc2c(c1)CCc1cc(=O)[nH]nc1-2`, the melting point was in the range of 289 to 292 °C.

The compound `O=C(COc1ccc2c(-c3ccccc3F)noc2c1Cl)NO` came in with a melting point of 151 °C. Compound `CC(C)C(=O)N[C@H]1CC[C@H](CCN2CCC(c3cccc4c3CCO4)CC2)CC1` had a melting point of 212 °C. Consider `Cc1cc(C)c(C(C#N)c2nc(C)nc(Cl)c2C)c(C)c1` (centres undefined), for which the melting point lay within 100 to 102 °C. Consider `CCc1nc2c(cnn2CC)c(NC2CCOCC2)c1CNC(=O)c1cccc(C(=O)NCc2ccc(OC)c(-c3cccc(CN4CC5CC4CN5)c3)c2)c1` (centres undefined), for which the melting point lay in the range of 129 to 131 °C. The compound `CS(=O)(=O)Nc1ccc(C(=O)c2ccccc2)cc1` gave a melting point of 145 to 147 °C.

Regarding `CCS(=O)(=O)N(CC(=O)Nc1ccncc1)C1CC(C)(C)Oc2ccc(F)cc21` (centres undefined), the melting point was determined as 195 °C. `O=C(O)COc1c(-c2cccc(Cl)c2)cc(C(=O)NCCCC2CCCC2)cc1-c1cccc(C(F)(F)F)c1` displayed a melting point of 173 to 175 °C. Compound `O=C1c2ccccc2C(=O)N1CC(=O)N(CC(=O)n1ccnc1)c1ccccc1` had a melting point of 206 °C. For `CCC1CCc2cc3c(cc2C1)C(=O)c1cccc(OC)c1C3=O` (centres undefined), the melting point is 206 to 208 °C.

Consider `COc1ccccc1NS(=O)(=O)c1ccc([N+](=O)[O-])cc1`, for which the melting point fell in the range of 96 to 98 °C. The value for `C=CC[C@H](C(N)=O)[C@@H](CC(C)C)C(=O)NC1N=C(N(C)C)c2ccccc2N(C)C1=O` (some centres undefined) was 230 to 232 °C. On to `CS(=O)(=O)c1ccc(-c2cnn(C3Cc4ccccc4C3)c(=O)c2-c2ccc(F)cc2)cc1`, for which the melting point lay in the range of 97 to 100 °C. With `Nc1ccc(Cc2ccccc2)cn1` the figure was 79 to 80 °C; with `CCc1nn(CCOc2ccc(C=O)cc2)c(=O)c2ccccc12`, 110 °C.

In turn, `COc1cc2oc(=O)c(CCOS(C)(=O)=O)c(C)c2cc1OC` yielded a melting point of 188 to 191 °C. With `Cc1[nH]c2ccccc2c1CC(=O)N1CCN(C(c2ccc(F)cc2)c2ccc(F)cc2)CC1` the figure was 93 to 103 °C; with `CCCN(CCC)c1ccccc1C(C)C(C(N)=O)c1ccc(C(=O)O)cc1` (centres undefined), 175 to 178 °C. As for `C#CC1CC2(CC#CC)C(O)CCC2C2C=CC3=CC(=O)CCC3C12` (centres undefined), the melting point was in the range of 195 to 198 °C. As for `O=C(O)CCCCCSc1ccc(-c2ccc(Cl)cc2)cc1`, the melting point was 156 to 157 °C. For the compound `C=CCOC(=O)/C=C/c1c[nH]c2ccc(OCc3ccccc3)cc12`, the melting point was in the range of 73 to 77 °C. As to `COc1ccc(CC(=O)c2ccc(OC)cc2O)cc1`, the melting point lay within 101 to 102 °C. The compound `Nc1nnc(-c2cc(Cl)cc(Cl)c2Cl)c(N)n1` returned a melting point of 232 to 235 °C. `CCCOCc1cc2c(-c3ccc(OCc4ccccc4)cc3)c(CC)c3cccc1n32`: the melting point lay within 78 to 80 °C.

`COc1cc2nc(CN(C)C)nc(Cl)c2cc1OC` registered a melting point of 78 to 80 °C. `c1cncc(N=C2SCC3Cc4ccccc4N23)c1` (racemic) returned a melting point of 131 °C. With `O=C1CCC2=C(CCc3cccc(Cl)c32)N1`, the melting point is 184 °C. The compound `COc1cccc(OC)c1C(=O)N1CC2CCCN2c2ccccc21` (centres undefined) yielded a melting point of 140 to 142 °C. For the compound `CC1CC(Nc2nnc(-c3cccc(Oc4cccc(C(F)(F)F)c4)c3)s2)CC(C)(C)C1` (centres undefined), the melting point was 101 to 102 °C. Compound `CCCc1nn(C)c2c(=O)[nH]c(-c3cc4cccc(OCC)c4o3)nc12` returned a melting point of 227 to 229 °C.

For the compound `Nc1[nH]c(=O)c(C(=O)NCC2CCN(CC3CCCCC3)CC2)cc1Cl`, the melting point lay within 142 to 146 °C. Compound `CCCc1c(OCc2cccc(CC(=O)O)c2)ccc(C(C)=O)c1O` showed a melting point of 156 to 158 °C. Consider `NC(=O)c1ccc(C(=O)O)c(N)c1`, for which the melting point was 276 to 278 °C. Consider `CCCCN1C(=O)c2cncnc2N(C(=O)CN2CCOCC2)c2ccccc21`, for which the melting point was 127 to 128 °C.

`CCn1ncc2c(NCC3CCCCC3)c3cccc(Br)c3nc21`: the melting point lay within 160 to 162 °C. The value for `CC(=O)OCC1CC(Nc2cc(Cl)c(Cl)cc2N)C(OC(C)=O)C1OC(C)=O` (centres undefined) was 124 to 125 °C; that for `CCOC(=O)CNC(=O)c1c(Cl)c2cc(Oc3ccc(C(F)(F)F)cc3)ccc2n1-c1ccc(OC(C)C)cc1` was 80 to 81 °C. Regarding `CNc1nc(Cl)nc2c1ncn2C1CC(F)C(CO)O1` (centres undefined), the melting point lay in the range of 181 to 182 °C. Regarding `COc1ccc2c(c1)c1c(n2Cc2ccc(C(C)(C)C)cc2)COC(=O)C1=O`, the melting point was 238 to 239 °C. With `O=c1c2c[nH]c3cccnc3c-2nn1-c1ccccc1`, the melting point was in the range of 314 to 316 °C. On to `CN(CCOc1ccc(C=O)cc1)c1ncccn1`, for which the melting point lay in the range of 74 to 75 °C. `CCOC(=O)c1ccccc1-c1ccc(Nc2cc(CC)nc3ccnn23)cc1`: the melting point was in the range of 223 to 225 °C. Turning to `CCC(=CC(CNC(=O)Cc1cccnc1)=NO)C(C)[N+](=O)[O-]` (centres undefined), the melting point was 123 to 125 °C. `COc1ccc(CSc2ccncc2C(=O)O)cc1` showed a melting point of 230 °C. `O=C(c1ccc(C(F)(F)F)cc1)c1cccc(O)c1` had a melting point of 130 °C.

For the origin of these results see a melting point compilation (Tetko et al.; mined from patent text by program, amines drawn as free bases though some values may be those of a salt).
